Assay results: the NIST ThermoML archive (doi:10.1021/je800664z)

Assays:
[1] = for surface tension liquid-gas: Capillary rise; for mass density / viscosity: 101 kPa, Liquid
[2] = refractive index (Na D-line) (dimensionless); conditions: 101.33 kPa, Liquid, Standard Abbe refractometry
[3] = xn = mol fraction of the nth substance listed; conditions: x2 = 0; for surface tension liquid-gas: Capillary rise; for mass density / viscosity: 101 kPa, Liquid
[4] = refractive index (Na D-line) (dimensionless); xn = mol fraction of the nth substance listed; conditions: 101 kPa, Liquid, Standard Abbe refractometry, x2 = 0

C1COCO1 [1,3-dioxolane]
Conditions | mass density, [1] [kg/m3] | refractive index, [2] | surface tension liquid-gas, [1] [mN/m] | viscosity, [1] [mPa·s]
288.15 K | 1071.24 | 1.40252 | 34.37 | 0.667
298.15 K | 1059.29 | 1.39795 | 32.55 | 0.596
308.15 K | 1046.85 | 1.39322 | 30.67 | 0.535

CC(C)CC(C)(C)C [2,2,4-trimethylpentane]
Conditions | mass density, [1] [kg/m3] | refractive index, [2] | surface tension liquid-gas, [1] [mN/m] | viscosity, [1] [mPa·s]
288.15 K | 696.1 | 1.39408 | 19.18 | 0.537
298.15 K | 687.95 | 1.38916 | 18.33 | 0.481
308.15 K | 679.62 | 1.38497 | 17.35 | 0.434

CC(C)CC(C)(C)C [2,2,4-trimethylpentane] + C1COCO1
Conditions | mass density, [3] [kg/m3] | refractive index, [4] | surface tension liquid-gas, [3] [mN/m] | viscosity, [3] [mPa·s]
288.15 K | 696.1 | 1.39408 | 19.18 | 0.537
298.15 K | 687.95 | 1.38916 | 18.33 | 0.481
308.15 K | 679.62 | 1.38497 | 17.35 | 0.434

CC(C)O [propan-2-ol]
Conditions | mass density, [1] [kg/m3] | refractive index, [2] | surface tension liquid-gas, [1] [mN/m] | viscosity, [1] [mPa·s]
288.15 K | 789.53 | 1.37933 | 21.75 | 2.849
298.15 K | 781.16 | 1.37515 | 20.9 | 2.043
308.15 K | 772.52 | 1.37061 | 20.17 | 1.541

CC(C)O [propan-2-ol] + C1COCO1
Conditions | mass density, [3] [kg/m3] | refractive index, [4] | surface tension liquid-gas, [3] [mN/m] | viscosity, [3] [mPa·s]
288.15 K | 789.53 | 1.37933 | 21.75 | 2.849
298.15 K | 781.16 | 1.37515 | 20.9 | 2.043
308.15 K | 772.52 | 1.37061 | 20.17 | 1.541
